In patent US4980287A, “4H-3,1-benzoxazin-4-one compounds and pharmaceutical compositions thereof for the inhibition of serine proteases” (Teijin Limited, priority 1987, dated 1990):

Assays:
[1] = biological target: T1, human purulent sputum elastase (Homo sapiens, UniProt P08246); test: Human purulent sputum elastase-inhibitory activity (hydrolysis of methoxysuccinyl-peptidyl-p-nitroanilide, absorbance at 410 nm); format: biochemical; details: for IC50: Table 10, procedure of Example 19 (A)
T1 construct: purchased Elastin Products Co; host or cells: human purulent sputum
T1 sequence (P08246 30-247 limits assumed): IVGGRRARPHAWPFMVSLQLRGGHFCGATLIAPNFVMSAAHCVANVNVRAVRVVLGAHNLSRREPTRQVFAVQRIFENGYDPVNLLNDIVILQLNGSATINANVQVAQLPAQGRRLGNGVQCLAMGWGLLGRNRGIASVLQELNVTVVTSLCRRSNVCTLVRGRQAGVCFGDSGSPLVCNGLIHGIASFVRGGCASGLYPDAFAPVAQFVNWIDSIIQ
Excerpt: Human purulent sputum elastase is believed to be the same enzyme as human leukocyte elastase, as described by Tomashi et al. (J. BIOL. CHEM., vol. 252, pages 1917 to 1924 (1977)), and can be easily obtained commercially.
The extent of the hydrolysis of AAPVpNA by human purulent sputum elastase can be easily determined by measuring the amount of p-nitroaniline released from AAPVpNA, by a spectrophotometer. Then, by comparing the extent of hydrolysis of AAPVpNA by the human purulent sputum elastase in the absence of a compound to be tested with that in the presence of the compound to be tested in various concentrations, a concentration (IC50) of the compound to be tested necessary to inhibit 50% of the elastase reaction can be determined.
(§1) Inhibitory activities of 7-(N-carbobenzoxy-L-phenylalanyl)amino-2-isopropylamino-5-methyl-4H-3,1- benzoxazin-4-one for human purulent sputum elastase, for α-chymotrypsin, for cathepsin G, for trypsin, for thrombin and for plasmin were determined by the following methods and the results are shown in Table 9.
The testing buffer (pH7.5) consisted of 0.1M N-2-hyiroxyethylpiperazine-N'-2-ethanesulfonic acid, 1M sodium chloride and 0.1% w/v polyethylene glycol 6000.
Human purulent sputum elastase was obtained from Elastin Products Co., and adjusted to 1.5×10^-8 M in the testing buffer.
Methoxysuccinyl-[…]-p-nitroanilide was obtained from Bachem Co., and made to 10 mM in dimethyl sulfoxide.
Procedure To 2.4ml of testing buffer in a cell set at 37° in a spectrophotometer (Hitachi U-3200) with a temperature controlled cell holder were added 25 μl of substrate solution and 25 μl of acetonitrile with or without inhibitory compounds, and the resultant mixture was stirred. Reactions were initiated by addition of 50 μl of the enzyme solution and hydrolysis of the substrate was monitored by measuring a change of light absorbance at 410 nm. The concentration (IC50) at which 50% of the activity of human purulent sputum elastase was inhibited was determined for each inhibitory compound from a steady state velocity of the substrate hydrolysis.
(§2) In each of Examples 20 to 37 and Comparative Examples 1 to 4, the same experimental procedures as those described in Example 19, items (A) and (B) were used for determination of enzyme inhibitory activity, except that the compound indicated in Table 10 was tested as an inhibitory compound.

[2] = biological target: T2, bovine pancreas α-chymotrypsin (Bos taurus, UniProt P00766); test: α-chymotrypsin-inhibitory activity (hydrolysis of succinyl-Ala-Ala-Pro-Phe-p-nitroanilide); format: biochemical; details: for IC50 / Selectivity: Table 10; for IC50: procedure of Example 19 (B); for Selectivity: ratio of IC50 for bovine α-chymotrypsin to IC50 for human purulent sputum elastase
T2 construct: bovine pancreas α-chymotrypsin; purchased Sigma Co; host or cells: bovine pancreas
Description: An in vitro test similar to that mentioned above can be applied to chymotrypsin.
As a chymotrypsin, α-chymotrypsin of bovine pancreas, which is readily available commercially, is used. […] The extent of the hydrolysis of AAPFpNA is measured in the absence of a compound to be tested or in the presence of the compound in various concentrations thereof, and thus a concentration (IC50) of the compound necessary to inhibit 50% of the enzyme reaction can be determined.
as §1
The same procedures as those described in the above item (A) for the human purulent sputum elastase were carried out, with the following exception.
The enzyme-testing tuffer solution contained 2×10^-8 M bovine pancreas α-chymotrypsin (available from Sigma Co.). The synthetic substrate was succinyl-L-alanyl-L-alanyl-L-prolyl-L-henylalanyl-p-nitroanilide (available from Bachem Co.).
An IC50 for the α-chymotrypsin was determined in the same manner as mentioned above. (C) Determination of human cathepsin G-inhibitory activity
as §2
In Table 10, the item "Selectivity" refers to a ratio of an IC50 value for bovine α-chymotrypsin to an IC50 value for human purulent sputum elastase. The larger the value of the ratio, the higher the selectivity of the inhibitory activity for elastase.

human thrombin = biological target: T3, human thrombin (Homo sapiens, UniProt P00734); test: Thrombin-inhibitory activity; format: biochemical; details: Table 9
T3 construct: human thrombin; purchased Daiichi Kagaku Yakuhin K.K
Description: as §1
The same procedures as those described in item (A) were carried out except that the enzyme-testing buffer solution contained 0.04 μkat/ml human thrombin (available from Daiichi Kagaku Yakuhin K.K.) and the substrate consisted of D-phenylalanyl-pipecolyl-arginyl-p-nitroanilide (available from Daiichi Kagaku Yakuhin K.K.).
An IC for the human thrombin was determined in the same manner as mentioned above.

human plasmin = biological target: T4, human plasmin (Homo sapiens, UniProt P00747); test: Plasmin-inhibitory activity; format: biochemical; details: Table 9
T4 construct: human plasmin; purchased Daiichi Kagaku Yakuhin K.K
Description: as §1
The same procedures as those described in item (A) were carried out except that the enzyme testing buffer solution contained 0.6 CasU/ml human plasmin (available from Daiichi Kagaku Yakuhin K.K.) and the substrate consisted of D-valyl-L-leucyl-L-lysyl-p-nitro-anilide (available from Daiichi Kagaku Yakuhin K.K.).
An IC50 for the human plasmin was determined in the same manner as mentioned above.

[3] = Stability in human serum (37° C., HPLC peak area); format: in vitro ADME
Description: A solution of […] of 7-(N-carbobenzoxy-L-phenylalanyl)amino-2-isopropylamino-5-methyl-4H-3,1-benzoxazin-4-one in 50 μl acetonitrile was mixed with 0.45 ml of human serum, and the resultant mixture was allowed to stand at a temperature of 37° C. The mixture was subjected to treatment with a Sep-pac C18 cartridge (trademark, made by Waters Cc.) for removal of protein, and a portion of the resultant acetonitrile-eluted fraction was subjected to a high speed liquid chromatographic analysis.

[4] = Table 9, ratio of IC50 for the protease to IC50 for human purulent sputum elastase
[5] = ratio of IC50 for the protease to IC50 for human purulent sputum elastase

T4 sequence (P00747 581-810 limits assumed): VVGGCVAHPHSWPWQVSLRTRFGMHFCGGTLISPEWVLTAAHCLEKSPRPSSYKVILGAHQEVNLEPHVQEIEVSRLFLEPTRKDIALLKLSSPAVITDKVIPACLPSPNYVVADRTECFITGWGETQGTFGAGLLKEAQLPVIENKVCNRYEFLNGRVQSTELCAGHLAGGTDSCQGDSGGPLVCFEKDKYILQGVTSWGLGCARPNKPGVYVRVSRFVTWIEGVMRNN
T4 sequence (P00747 97-580 partner limits assumed): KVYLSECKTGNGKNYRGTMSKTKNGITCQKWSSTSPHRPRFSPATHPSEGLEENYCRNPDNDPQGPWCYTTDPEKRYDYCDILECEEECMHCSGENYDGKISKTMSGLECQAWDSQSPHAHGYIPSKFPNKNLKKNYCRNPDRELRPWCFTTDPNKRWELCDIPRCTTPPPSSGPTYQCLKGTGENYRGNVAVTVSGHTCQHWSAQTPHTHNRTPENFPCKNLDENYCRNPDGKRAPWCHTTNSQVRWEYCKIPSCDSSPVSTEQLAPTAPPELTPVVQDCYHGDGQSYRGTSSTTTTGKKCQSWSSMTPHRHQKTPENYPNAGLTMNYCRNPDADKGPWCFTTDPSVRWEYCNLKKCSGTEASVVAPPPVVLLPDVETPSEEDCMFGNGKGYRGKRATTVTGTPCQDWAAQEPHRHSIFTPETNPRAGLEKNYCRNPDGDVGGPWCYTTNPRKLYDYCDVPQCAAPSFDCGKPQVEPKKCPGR

IC50 [1] [nM] | IC50 [2] [nM] | Selectivity [2] | Compound | further results
35 | 130 | 3.7 | CC(C)Oc1nc2cc(NC(=O)[C@@H]3CCCN3C(=O)OC(C)(C)C)ccc2c(=O)o1 [Example 28] | –
11 | 340 | 31 | CC(C)Oc1nc2cc(NC(=O)[C@H](Cc3ccccc3)NC(=O)OCc3ccccc3)ccc2c(=O)o1 [Example 24] | –
2200 | 17000 | 7.7 | O=C(Nc1ccc2c(=O)oc(C(F)(F)F)nc2c1)[C@@H]1CCCN1C(=O)OCc1ccccc1 [Example 20, 7-(N-carbobenzoxy-L-prolyl)amino-2-trifluoromethyl-4H-3,1-benzoxazin-4-one] | –
46 | 94 | 2.0 | CC(C)Oc1nc2cc(NC(=O)[C@H](Cc3ccccc3)NC(=O)OC(C)(C)C)ccc2c(=O)o1 [Example 29] | –
77 | 370 | 4.8 | CC(C)Oc1nc2cc(NC(=O)[C@H](C)NC(=O)OCc3ccccc3)ccc2c(=O)o1 [Example 22] | –
5100 | 160000 | 31 | Cc1nc2cc(NC(=O)[C@H](Cc3ccccc3)NC(=O)OCc3ccccc3)ccc2c(=O)o1 [Example 37, 7-(N-carbobenzoxy-L-phenylalanyl)amino-2-methyl-4H-3,1-benzoxazin4-one] | –
32 | 180 | 5.6 | CC(C)Oc1nc2cc(NC(=O)[C@@H]3CCCN3C(=O)[C@H](C)NC(=O)OCc3ccccc3)ccc2c(=O)o1 [Example 31] | –
26 | > 500 | > 20 | CC(C)Oc1nc2cc(NC(=O)[C@H](CCC(=O)OCc3ccccc3)NC(=O)OCc3ccccc3)ccc2c(=O)o1 [Example 26] | –
6200 | 680 | 0.10 | O=c1oc(C(F)(F)F)nc2ccccc12 [compound 1, reference compound] | –
24 | 160 | 6.6 | CC(C)Oc1nc2cc(NC(=O)[C@@H](NC(=O)OCc3ccccc3)C(C)C)ccc2c(=O)o1 [Example 23] | –
1.3 | 25 | 19 | Cc1cc(NC(=O)[C@H](Cc2ccccc2)NC(=O)OCc2ccccc2)cc2nc(NC(C)C)oc(=O)c12 [Example 36, 7-(N-carbobenzoxy-L-phenylalanyl)amino-5-methyl-2-isopropylamino-4H-3,1-benzoxazin-4-one] | Selectivity, human purulent sputum elastase [1, 4]: 1; IC50 (human thrombin; 0.04 μkat/ml enzyme): > 100000 nM; Selectivity, human thrombin (human thrombin; [5]): > 100,000; IC50 (human plasmin; 0.6 CasU/ml enzyme): 75000 nM; Selectivity, human plasmin (human plasmin; [5]): 58,000; Selectivity, bovine pancreas α-chymotrypsin [2, 4]: 19; half-life [3]: 2.5 h
58 | 32 | 0.55 | CC(=O)Nc1ccc2c(=O)oc(OC(C)C)nc2c1 [compound 3, reference compound] | –
41 | 120 | 2.9 | Cc1cccc2nc(OC(C)C)oc(=O)c12 [compound 4, reference compound] | –
0.55 | 10 | 18 | Cc1cc(NC(=O)[C@H](Cc2ccccc2)NC(=O)OCc2ccccc2)cc2nc(OC(C)C)oc(=O)c12 [Example 34, 7-(N-carbobenzoxy-L-phenylalanyl)amino-2-isopropoxy-5-methyl-4H-3,1-benzoxazin-4-one] | –
14 | 580 | 41 | CC(C)Oc1nc2cc(NC(=O)[C@H](CCCCNC(=O)OCc3ccccc3)NC(=O)OCc3ccccc3)ccc2c(=O)o1 [Example 25] | –
44 | 170 | 3.9 | CC(C)Oc1nc2cc(NC(=O)[C@@H]3CCCN3C(=O)OCc3ccccc3)ccc2c(=O)o1 [Example 21, 7-(N-carbobenzoxy-L-prolyl)amino-2-isopropoxy-4H-3,1-benzoxazin-4-one] | –
20 | 120 | 5.8 | CC(C)Oc1nc2cc(NC(=O)[C@@H](NC(=O)[C@@H]3CCCN3C(=O)OCc3ccccc3)C(C)C)ccc2c(=O)o1 [Example 32] | –
41 | 490 | 12 | CC(C)Oc1nc2cc(NC(=O)[C@@H](Cc3ccccc3)NC(=O)OCc3ccccc3)ccc2c(=O)o1 [Example 27] | –
49 | 22 | 0.44 | CC(C)Oc1nc2ccccc2c(=O)o1 [compound 2, reference compound] | –
21 | 180 | 5.6 | CC(C)Oc1nc2cc(NC(=O)[C@@H](NC(=O)[C@H](Cc3ccccc3)NC(=O)OCc3ccccc3)C(C)C)ccc2c(=O)o1 [Example 33] | –
130 | 490 | 3.8 | CC(=O)N1CCC[C@H]1C(=O)Nc1ccc2c(=O)oc(OC(C)C)nc2c1 [Example 30] | –
